Experiment [1] deals with T1, ligand-dependent interaction between PPARγ and CBP (Homo sapiens, UniProt P37231).
T1 construct: expressed in transfected cells; host or cells: yeast cell strain SFY526 (Clontech), transformed with pGBT9-PPARγ2 and pGAD424-CBP
The experiment is described as follows: Yeast two-hybrid detection of ligand-dependent interaction between PPARγ and CBP (β-galactosidase reporter). To be noted: for β-galactosidase activity (lacZ gene expression): yeast SFY526 containing both plasmids pGBT9-PPARγ2 and pGAD424-CBP, substance added at 10^−6M (FIG. 2A/3A), cultivation 4 to 5 hours; for concentration dependence of the increase in β-galactosidase activity: yeast containing both plasmids, varying concentrations of substance (FIG. 2B/3B). Format: cell-based. An excerpt:
The 1574 base pair fragment containing PPARγ2 gene obtained in (1) above was cleaved at the XhoI recognition site designed at the terminus and the BamHI recognition site in the base sequence. The fragments obtained were inserted into the BamHI-SalI site of yeast expression vector pGBT9 (available from Clontech Co., vector for yeast two hybrid system) containing the gene of the DNA binding domain of transcription factor GAL4 (No. 1 to 147 amino acid residues of GAL4). As a result, plasmid pGBT9-PPARγ2 (FIG. 1A) for expressing a fused protein comprising the portion downstream of the No. 181 amino acid residue of human PPARγ2 (ligand binding domain) and the DNA binding domain of GAL4 was obtained. In FIG. 1A, GAL4 bd stands for a GAL4 DNA binding domain sequence, ^PADH1 stands for alcohol dehydrogenase gene promoter, ^TADH1 stands for an alcohol dehydrogenase gene terminator, Amp^r stands for an ampicillin resistant gene, ColE1 ori stands for a collicin E1 replication start point, and 2 μ ori stands for a 2 μ replication start point.
The 1411 base pair fragment containing CBP gene obtained in (1) above (N-terminal domain) was cleaved at the BamHI recognition site and BglII recognition site designed at the termini. The fragments obtained were inserted into the BamHI-BglII site of yeast expression vector pGAD424 (available from Clontech Co., vector for yeast two hybrid system) containing the gene of the transcriptional activation domain of GAL4 (No. 768 to 881 amino acid residues of GAL4). As a result, plasmid pGAD424-CBP (FIG. 1B) for expressing a fused protein comprising the portion of the No. 1 to 464 amino acid residues of mouse CBP (N-terminal domain) and the transcriptional activation domain of GAL4 was obtained. In FIG. 1B, GAL4 ad stands for GAL4 transcriptional activation domain sequence and others have the same meanings as in FIG. 1A.
Using yeast cell strain SFY526 (available from Clontech Co.), the fused protein expression plasmids pGBT9-PPARγ2 and pGAD424-CBP obtained in (2) and (3) above were introduced therein. The cell strain SFY526 (genotype was MATa, ura3-52, his3-200, ade2-101, lys2-801, trp1-901, leu2-3, 112, canr, gal4-542, gal80-538, URA3::GAL1-lacZ) had incorporated in the chromosome a fused gene of GAL1 and lacZ and is a cell strain having deletion mutation relative to GAL4 gene (Bartel et al., Bio Techniques, vol. 14, pp. 920–924, 1993). The transformation was performed by the lithium acetate method and incubated in a synthetic medium depleted of tryptophan and leucine which are selection markers for the respective plasmids to perform screening to obtain a transformant in which only one of the plasmids was introduced and a transformant in which the both plasmids were introduced.
The yeast transformant containing both of the plasmids pGBT9-PPARγ and pGAD424-CBP or the yeast transformant containing only one of the plasmids was cultivated in YPD medium (liquid medium). Upon cultivation, 15-deoxy-Δ^12,14-prostaglandin J2, which is a ligand of PPARγ2 in a living body, diluted with YPD medium was added (or not added). 15-deoxy-Δ^12,14-prostaglandin J2 (hereinafter abbreviated to as “15d-PGJ2”) used was commercially available (available from CAYMAN CHEMICALS, CO., U.S.A.). The cultivation was performed for 4 to 5 hours. After the cultivation, the yeast cells were recovered by centrifugation and β-galactosidase activity was measured. […]

Experiment [2] relates to KK-Ay mouse. To be noted: Japanese Provisional Patent Publications No. 56675/1989 and No. 167225/1990; cited from earlier work.

T1 sequence (P37231 182-505): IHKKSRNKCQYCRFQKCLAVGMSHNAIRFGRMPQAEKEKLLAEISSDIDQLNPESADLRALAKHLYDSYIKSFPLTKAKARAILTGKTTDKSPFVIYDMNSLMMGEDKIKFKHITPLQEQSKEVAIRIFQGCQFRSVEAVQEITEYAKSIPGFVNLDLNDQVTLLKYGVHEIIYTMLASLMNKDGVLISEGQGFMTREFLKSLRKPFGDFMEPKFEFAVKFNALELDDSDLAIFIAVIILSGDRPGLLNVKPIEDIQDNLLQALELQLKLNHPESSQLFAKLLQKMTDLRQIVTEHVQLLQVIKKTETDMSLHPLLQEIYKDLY
T1 sequence (P45481 1-464 partner): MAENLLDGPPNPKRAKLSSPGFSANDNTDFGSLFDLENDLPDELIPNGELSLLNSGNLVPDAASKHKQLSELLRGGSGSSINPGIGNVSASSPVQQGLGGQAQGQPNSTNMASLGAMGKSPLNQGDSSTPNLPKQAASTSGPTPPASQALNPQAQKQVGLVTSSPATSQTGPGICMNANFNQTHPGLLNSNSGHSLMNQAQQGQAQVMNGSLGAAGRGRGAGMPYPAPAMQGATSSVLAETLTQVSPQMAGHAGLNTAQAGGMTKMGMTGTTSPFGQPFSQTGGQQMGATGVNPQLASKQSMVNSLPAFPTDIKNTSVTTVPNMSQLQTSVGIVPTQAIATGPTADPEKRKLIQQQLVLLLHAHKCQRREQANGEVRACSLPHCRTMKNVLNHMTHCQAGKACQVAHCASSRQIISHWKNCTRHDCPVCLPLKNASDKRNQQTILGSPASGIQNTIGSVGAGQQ

In the case of `CCCCC/C=C/C=C1/C(=O)C=C[C@@H]1C/C=C\CCCC(=O)O` [15d-PGJ2, 15-deoxy-Δ^12,14-prostaglandin J2], in experiment [1], the “β-galactosidase activity (lacZ gene expression)” value was “an increase in β-galactosidase activity” and the “concentration dependence of the increase in β-galactosidase activity” value is given as “dependent on the concentration of 15d-PGJ2”.
Consider `O=C1NC(=O)C(Cc2ccc3oc(Cc4ccc5ccccc5c4)nc3c2)S1` (stereo not drawn) [T-174, 5-[[2-(2-naphthalenylmethyl)-5-benzoxazolyl]methyl]-2,4-thiazolidinedione], for which the hypoglycemic effect result in experiment [2] is “hypoglycemic effect”. Moreover, the “identification as agonist for PPARγ” value in experiment [1] (conclusion from ligand-dependent PPARγ-CBP interaction in yeast two-hybrid system) was “identified as an agonist acting as a ligand to PPARγ”. Further, in experiment [1], the “β-galactosidase activity (lacZ gene expression)” value is “an increase in β-galactosidase activity was observed only in the yeast containing both of the plasmids” and the “concentration dependence of the increase in β-galactosidase activity” value was “dependent on the concentration of T-174”.

The values are drawn from patent US7045298B2, “Method for identifying or screening agonist and antagonist to PPAR” (Tanabe Seiyaku Co., Ltd., priority 1997, dated 2006).
